Test [1] has as its target Urokinase (uPA not bound to uPAR) (Homo sapiens, UniProt P00749). Nature of the test: ENZ: Urokinase-activity-assay (uPA not bound to uPAR). It counts as biochemical. Conditions: assay without uPAR; for IC50: read-out: IC50 (µg/ml) ENZ (converted). The method, then:
ENZ: Urokinase-activity-assay (uPA not bound to uPAR)
This assay is identical to the uPA/uPAR assay of example one except that no uPAR is used, i.e. no incubation of the wells with uPAR and the following washing steps is necessary.

The target of test [2] is T1, NIH 3T3 cells transfected with a human urokinase receptor (Homo sapiens, UniProt Q03405).
T1 construct: expressed in transfected cells; host or cells: NIH 3T3 (clone NIH3T3 CH1 (15.10)), mouse fibroblasts
T1 sequence (Q03405 23-305 limits assumed): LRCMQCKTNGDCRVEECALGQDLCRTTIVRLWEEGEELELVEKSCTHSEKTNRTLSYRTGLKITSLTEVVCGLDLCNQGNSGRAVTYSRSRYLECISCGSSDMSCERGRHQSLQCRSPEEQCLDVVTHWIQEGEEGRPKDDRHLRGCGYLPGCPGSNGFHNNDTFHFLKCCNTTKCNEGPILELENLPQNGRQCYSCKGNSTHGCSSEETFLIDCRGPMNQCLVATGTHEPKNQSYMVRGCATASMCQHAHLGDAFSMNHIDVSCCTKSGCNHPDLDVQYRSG
Put plainly: Cellular assay: uPA binding to NIH 3T3 cells transfected with a human urokinase receptor. It counts as cell-based. Conditions: for IC50: read-out: IC50 (µg/ml) cells (converted).
Method: An enzyme test was used to detect inhibtion of urokinase activity and a cellular assay using NIH 3T3 (from ATCC) cells transfected with a human urokinase receptor was obtained.
Medium: • DMEM (MEM dulbecco/Boehringer) with NaHCO3 and 4.5 g/l Glucose
add: • 10% FCS (Seromed) • 2 mM L-Glutamine • 1 mM Na-Pyruvat • 100 U/ml Penicillin • 100 µg/ml Streptomycin • 1 µg/ml G 418 (Geneticin) • sterilize all supplements by filtration
Take a 1 mg/ml fibronectin solution (in sterile water) and dilute an appropriate aligot with sterile PBS to a final concentration of 50 µg/ml. Coat the 96-well plate with 200 µl//well. Incubate for about 45 min. at room temperature. Remove the solution carefully. The wells should not be allowed to dry, use immediately. Prepare the cells during the 45 min. of incubation with fibronectin. NIH3T3 CH1 (15.10)-cells are grown to confluency in T 175 cell-culture flasks in the above described medium. Remove the media and rinse the cells with PBS, add 2 ml of Trypsin / EDTA solution for cell detachment. Stop trypsin activity by addition of approx. 6 ml medium . Take an aliquot of the cells to determine the cellnumber and adjust the celldensity to 8 x 10^5/ml with medium. Take the fibronectin coated 96 well palate and spread 100 µl cell-suspension/well, let the cells grow to confluency over night.
Discard the medium carefully and wash the cells by addition of 200 µl medium (without supplements) / well and again discarding the medium. Add 200 µl 2% skimmed milk in medium. Incubate for 30 minutes at roomtemperatur. Wash twice with 200 µl medium (w supplements) / well carefully (to remove unbound skimmed milk). Preincubate with 50 µl testcompound diluted in medium, respectively medium only for the controls for 20 minutes; add 50 µl uPA-solution [200 ng/ml]. Incubate for 60 minutes at roomtemperature; wash carefully for 3 times with medium (200 µl/well). […] Measure at a wavelength of 405 nm (reference: 490 nm) with an ELISA-Reader. The yellow colour will appear after about 45 mins.

Test [3] concerns the target T2, human urokinase (uPA) binding to its specific receptor (uPAR) (Homo sapiens, UniProt Q03405). Put plainly: ELISA-Test: inhibition of uPA binding to its specific receptor (uPAR). Conditions: synthetic or commercially available porphyrins; for IC50: read-out: IC50 (µg/ml) ELISA (converted). As for the experimental part:
This test is described by P. Rettenerger et al. in Biol. Chem. Hoppe-Seyler 376, pp. 587-594 (1995). An alternate ELISA-test is described in Behrendt et al., Meth. Enzymol. 233 (1993), 207-222. • ELISA-Test: Inhibition of human urokinase (uPA) binding to its specific receptor (uPAR). The assays are performed in Microtiterplates (96 wells). The following solutions are used: • washing buffer: PBS-buffer (w/o Mg^2+Ca^2+) + 0,05% Tween 20; uPAR-solution 100 ng/ml (10 ng/well) • blocking solution 2% skimmed milk powder (Merck) in washing buffer • incubation buffer 0.5% skimmed milk powder in PBS uPA-solution 10 ng/well detection solutions (per microfilter plate): • (1) 6 ml (100 mM Tris-CI pH 7.5 + 0.15% Tween 80) + 1.5 ml (10 µg) Plasminogen in aqua bidest. • (2) 6 ml (100 mM Tris-CI pH 7.5 + 0.15% Tween 80) + 1.5 ml (7.5 mg) Chromozyme PL in aqua bidest.
The detection solution must be continously stirred.
Testing substances: the testing substances are solved in DMSO. They are used in the test system with a highest concentration of 100 µg/ml. Dissolutions are prepared using PBS.
Three controlls are performed: • a) positive controll: using 2% DMSO in PBS • b) negative controll: assay w/o receptor • c) inhibition controll: Inhibition (IC95 at 0.25 mg/ml) with Dextranesulfate (MW = 500.000)
Each well is incubated by 10 ng uPAR for 1 hour at roomtemperature (RT). After washing once each well is incubated for half an hour (37°C) with 200 µl/well blocking solution. After triple washing testing substance solution or controll solutions are added (50 µl/well and incubated for 15 min at RT. An additional 50 µl of uPA solution (10 ng in incubation buffer) are added. After 1 hour at RT a triple washing is performed.
Incubation 70 µl each of solution (1) and (2) at RT. After 20 min. a yellow color will be visible (the positive control reads an extinction of 1 after 40 min.). The detection is performed at […] (reference is […]) using a Dynatech MR 7000 ELISA reader.
To obtain the percentage of inhibition the following formula is used: % Inhibtion = 100-100* (Extinction (Test) - Extinction (Neg. contr.)/(Extinction (Pos. contr.) - Extinction (Neg. contr.)) [formula]

In test [4] the target is T2, human urokinase (uPA) binding to its specific receptor (uPAR). Described as above.

pIC50: −log10 of the molar value. Counter-ions that a name gives are not always drawn. Like-named read-outs stand apart in the source and are kept apart here.

T2 sequence (Q03405 23-305 limits assumed): as above

`C=Cc1c(C)c2cc3nc(c(CC(=O)O)c4[nH]c(cc5nc(cc1[nH]2)C(C)=C5CC)c(C)c4C(=O)O)[C@@H](CCC(=O)O)[C@@H]3C` [Chlorin e6]: the IC50 was 2350 nM in test [1], 12900 nM in test [2] (NIH3T3 CH1 (15.10)-cells) and 520 nM in test [3].

For the compound `O=S(=O)(O)c1ccc(-c2c3nc(c(-c4ccc(S(=O)(=O)O)cc4)c4ccc([nH]4)c(-c4ccc(S(=O)(=O)O)cc4)c4nc(c(-c5ccc(S(=O)(=O)O)cc5)c5ccc2[nH]5)C=C4)C=C3)cc1` [meso-tetra-(4-Sulfonatophenyl)-Porphine Dihydrochlorid], the IC50 was 674 nM in test [1] and 214 nM in test [3]. Further, the pIC50 in test [2] (read-out: IC50 (µg/ml) cells, NIH3T3 CH1 (15.10)-cells) was 4.67.

As for Hematoporphyrin D, the “IC50 (µg/ml) ENZ” value in test [1] is 3,1 µg/ml. Moreover, the “IC50 (µg/ml) cells” value in test [2] (NIH3T3 CH1 (15.10)-cells) is recorded as 1,4 µg/ml. Further, the “IC50 (µg/ml) ELISA” value in test [3] was 0,52 µg/ml.

Consider `O=C(O)c1ccc(-c2c3nc(c(-c4ccc(C(=O)O)cc4)c4ccc([nH]4)c(-c4ccc(C(=O)O)cc4)c4nc(c(-c5ccc(C(=O)O)cc5)c5ccc2[nH]5)C=C4)C=C3)cc1` [meso-tetra-(4-Carboxyphenyl)-Porphine], for which the IC50 was 860 nM in test [1], 30600 nM in test [2] (NIH3T3 CH1 (15.10)-cells) and 266 nM in test [3].

Take `CCC1=C(C)c2cc3[nH]c(cc4nc(cc5[nH]c(cc1n2)c(C)c5CCC(=O)O)C(CCC(=O)O)=C4C)c(C)c3CC` [Mesoporphyrin IX Dihydrochloride]: the IC50 was 2120 nM in test [1] and 406 nM in test [3]. In test [2], this compound showed a pIC50 of 5.56.

As for `CC1=C(CCC(=O)O)c2cc3[nH]c(cc4nc(cc5[nH]c(cc1n2)c(C)c5C(O)CO)C(C)=C4C(O)CO)c(C)c3CCC(=O)O` (centres unmarked) [Deuteroporphyrin IX 2,4-Bis Glycol], the IC50 is 4280 nM in test [1] and 8400 nM in test [3].

For N-Methyl Protoporphyrin IX, the “IC50 (µg/ml) ELISA” value in test [3] is 0,4 µg/ml.

Al Phtalocyanine Tetrasulfonate: the “IC50 (µg/ml) ENZ” value in test [1] is listed as 2,3 µg/ml. Moreover, in test [3], the “IC50 (µg/ml) ELISA” value is 3,7 µg/ml.

Take `CCOC(=O)CCC1=C(C)c2cc3[nH]c(cc4nc(cc5[nH]c(cc1n2)c(C)c5CCC(=O)OCC)C(CCC(=O)OCC)=C4C)c(C)c3CCC(=O)OCC` [Coproporphyrin III tetraethylester]: the IC50 is 95200 nM in test [1], 124000 nM in test [2] (NIH3T3 CH1 (15.10)-cells) and 678 nM in test [3].

Take `C=CC1=C(C)C(=Cc2[nH]c(Cc3[nH]c(C=C4NC(=O)C(C)=C4C=C)c(C)c3CCC(=O)O)c(CCC(=O)O)c2C)NC1=O` [Bilirubine]: in test [4], the inhibition at 300 µg/mL stood at 11%.

For `COC(=O)CCC1=C(C)c2cc3[nH]c(cc4nc(cc5[nH]c(cc1n2)c(CCC(=O)OC)c5C)C(S(=O)(=O)O)=C4C)c(S(=O)(=O)O)c3C` [Deuteroporphyrin IX 2,4 Disulfonic Acid dimethylester], the IC50 was 3510 nM in test [1] and 1820 nM in test [3].

Values taken from patent publication EP0792647A1, “Porphyrins as urokinase-type plasminogen activator receptor antagonists” (BOEHRINGER MANNHEIM GMBH, priority 1996, dated 1997).
